According to US11021444B2, “Antiviral compounds” (priority 2013, dated 2021):
Where two headings read alike, the source gives them in different places.

What was measured:
[1] = Cytotoxicity Determination (CCK-8, without addition of virus); assay type: cell-based; settings: human, 50% cytotoxicity concentration (CC50)
Method in brief: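 Cytotoxicity was measured by CCK-8 after 3-4 hours at 37 °C, following 5 days of uninfected exposure at 37 °C and 5% CO2. Compounds ran as duplicate 7-point 1/2 dilutions starting at 100 μM, with 1% final DMSO. HEp-2 cells had been plated at 1,500/well the day before.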

RSV replicon = assay: microbe, parasite or virus in culture; assay type: cell-based; settings: read-out: EC50, the concentration of the drug required for reducing RSV replicon RNA by 50%
Description: The Renilla Luciferase Assay System (Promega, Cat. #E2820) was used to measure anti-RSV replicon activity. […] Luminescence was recorded using a Perkin Elmer multilabel counter Victor3V. EC50, the concentration of the drug required for reducing RSV replicon RNA by 50% in relation to the untreated cell control value, was calculated from the plot of percentage reductions of the optical density (OD) value against the drug concentrations using the Microsoft Excel forecast function.

[2] = tested on: Respiratory Syncytial Virus (RSV) long strain; assay: microbe, parasite or virus in culture; assay type: cell-based; settings: Tables A and B list compounds by EC50 band
Method in brief: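 CPE-reduction format: viability measured colorimetrically with CCK-8 (450 nm, 630 nm reference) after 3-4 h, following 5-day infection at 37 °C, 5% CO2. Cells were HEp-2; inoculum 100 TCID50/well; duplicate 9-point 1/3 series starting at 100 μM or 1 μM.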

recombinant RSV complex = recombinant RSV complex (Human respiratory syncytial virus A, UniProt P28887); assay: RSV Polymerase Inhibition Assay; assay type: biochemical
recombinant RSV complex, sequence (P28887 whole entry): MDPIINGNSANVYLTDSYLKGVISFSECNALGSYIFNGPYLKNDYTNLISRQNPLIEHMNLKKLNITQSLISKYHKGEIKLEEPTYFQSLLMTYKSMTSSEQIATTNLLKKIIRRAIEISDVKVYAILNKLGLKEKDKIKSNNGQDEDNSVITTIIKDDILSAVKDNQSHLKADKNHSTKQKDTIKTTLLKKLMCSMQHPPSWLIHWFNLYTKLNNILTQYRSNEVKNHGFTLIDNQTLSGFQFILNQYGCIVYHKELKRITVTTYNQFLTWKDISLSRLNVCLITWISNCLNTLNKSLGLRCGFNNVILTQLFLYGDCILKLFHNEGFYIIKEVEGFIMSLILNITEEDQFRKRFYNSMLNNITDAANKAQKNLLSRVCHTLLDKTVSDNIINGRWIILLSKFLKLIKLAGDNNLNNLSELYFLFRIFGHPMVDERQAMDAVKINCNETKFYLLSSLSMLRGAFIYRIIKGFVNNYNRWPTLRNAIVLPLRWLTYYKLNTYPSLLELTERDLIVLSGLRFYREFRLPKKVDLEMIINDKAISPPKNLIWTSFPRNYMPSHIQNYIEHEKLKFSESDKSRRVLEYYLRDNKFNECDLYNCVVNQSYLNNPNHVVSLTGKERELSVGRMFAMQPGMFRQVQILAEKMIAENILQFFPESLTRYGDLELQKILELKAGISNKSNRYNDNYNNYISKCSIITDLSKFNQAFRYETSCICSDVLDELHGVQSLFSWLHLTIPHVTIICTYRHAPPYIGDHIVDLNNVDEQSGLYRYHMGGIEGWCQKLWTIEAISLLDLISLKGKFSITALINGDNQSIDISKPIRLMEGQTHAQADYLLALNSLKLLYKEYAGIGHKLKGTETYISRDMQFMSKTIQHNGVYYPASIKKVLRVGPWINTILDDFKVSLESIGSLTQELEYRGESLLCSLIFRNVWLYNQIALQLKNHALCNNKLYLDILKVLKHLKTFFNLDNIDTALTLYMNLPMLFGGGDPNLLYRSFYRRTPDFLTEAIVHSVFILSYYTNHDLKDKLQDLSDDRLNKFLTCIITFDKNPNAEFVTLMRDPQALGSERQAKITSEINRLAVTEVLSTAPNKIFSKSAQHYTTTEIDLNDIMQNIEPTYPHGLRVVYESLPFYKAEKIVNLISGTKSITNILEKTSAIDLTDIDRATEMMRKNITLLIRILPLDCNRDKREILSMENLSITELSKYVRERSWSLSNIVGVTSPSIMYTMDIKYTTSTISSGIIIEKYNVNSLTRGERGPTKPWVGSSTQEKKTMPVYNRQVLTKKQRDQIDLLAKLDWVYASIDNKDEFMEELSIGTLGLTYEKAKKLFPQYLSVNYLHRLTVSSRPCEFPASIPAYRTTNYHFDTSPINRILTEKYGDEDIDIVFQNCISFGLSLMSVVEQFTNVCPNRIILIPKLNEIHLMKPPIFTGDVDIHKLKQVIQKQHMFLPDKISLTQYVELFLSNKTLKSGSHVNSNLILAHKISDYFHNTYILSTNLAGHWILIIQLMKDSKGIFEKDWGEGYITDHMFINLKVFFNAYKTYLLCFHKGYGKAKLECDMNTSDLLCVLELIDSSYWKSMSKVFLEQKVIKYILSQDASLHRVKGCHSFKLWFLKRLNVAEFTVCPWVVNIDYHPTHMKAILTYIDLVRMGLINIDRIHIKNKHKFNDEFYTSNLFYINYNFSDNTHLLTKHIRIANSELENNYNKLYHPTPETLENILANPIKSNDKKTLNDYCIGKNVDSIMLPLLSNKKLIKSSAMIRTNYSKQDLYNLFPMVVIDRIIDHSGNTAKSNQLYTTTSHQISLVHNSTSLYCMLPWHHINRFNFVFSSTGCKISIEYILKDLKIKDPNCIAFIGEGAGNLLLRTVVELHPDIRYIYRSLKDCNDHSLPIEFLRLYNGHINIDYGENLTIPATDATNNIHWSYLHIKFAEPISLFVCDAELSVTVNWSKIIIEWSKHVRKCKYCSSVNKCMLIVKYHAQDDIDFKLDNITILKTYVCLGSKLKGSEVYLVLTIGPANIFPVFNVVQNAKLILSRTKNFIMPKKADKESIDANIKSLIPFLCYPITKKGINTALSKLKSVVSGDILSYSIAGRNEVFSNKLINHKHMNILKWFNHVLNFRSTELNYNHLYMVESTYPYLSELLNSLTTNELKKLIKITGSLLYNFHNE
recombinant RSV complex, sequence (P03421 whole entry, further chain): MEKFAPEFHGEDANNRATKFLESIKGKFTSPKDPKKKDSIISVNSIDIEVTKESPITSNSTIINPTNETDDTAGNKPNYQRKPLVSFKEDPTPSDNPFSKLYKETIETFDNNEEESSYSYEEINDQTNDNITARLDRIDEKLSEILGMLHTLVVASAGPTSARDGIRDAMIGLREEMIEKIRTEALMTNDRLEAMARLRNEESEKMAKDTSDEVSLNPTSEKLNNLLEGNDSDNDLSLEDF
Method in brief: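 Inhibition measured as reduced incorporation of radiolabel into RNA products, detected by scintillation counting. Reactions: recombinant RSV complex (10 nM), RNA oligonucleotides, Tris-HCl pH 7.5, 6 mM MgCl2, inhibitor titration, 2 h at 30 °C, EDTA stop.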

[3] = human respiratory syncytial virus
[4] = human respiratory syncytial virus, HEp-2, 120 h, read-out: 50% effective concentration (EC50), HEp-2 cells infected with RSV long strain, 5 days, CCK-8 readout

COc1cc(C(=O)NCC(O)(c2cc3c(c(-c4ccc(C(=O)O)cc4)n2)OCC3(C)N)C(F)(F)F)ccc1OCCO (stereo not shown) [Compound 675]
CC50 at 5 days [1]: > 100 µM
EC50 (RSV replicon; [3]): < 1 µM

COc1cc(C(=O)NCC(O)(c2cc(C(C)(C)N)cc(-c3ccc(F)c(Cl)c3)n2)C(F)(F)F)ccc1OC1CC(F)C1 (stereo not shown) [Compound 323]
EC50 [2, 4]: < 1 µM
IC50 (recombinant RSV complex): < 1 µM
EC50 (RSV replicon; [3]): < 1 µM

COc1cc(C(=O)NCC(O)(c2cc(C(C)(C)NCCN)cc(-c3ccc(F)c(Cl)c3)n2)C(F)(F)F)ccc1OC1CC1 (stereo not shown) [Compound 508]
EC50 [2, 4]: < 1 µM
IC50 (recombinant RSV complex): < 1 µM
EC50 (RSV replicon; [3]): < 1 µM

COc1cc(C(=O)NCC(O)(c2cc3c(c(-c4ccc(C#N)cc4)n2)OCC3(C)N)C(F)(F)F)ccc1OC1CC1 (stereo not shown) [Compound 542]
EC50 ([2]; human respiratory syncytial virus, 120 h, read-out: 50% effective concentration (EC50), HEp-2 cells infected with RSV long strain, 5 days, CCK-8 readout): < 1 µM
CC50 at 5 days [1]: 10 to 100 µM
EC50 (RSV replicon; [3]): < 1 µM

COc1cc(C(=O)NCC(O)(c2cc(C(C)(C)N)cc(-c3ccc(F)c(Cl)c3)n2)C(F)(F)F)ccc1OC1CC1(F)F (stereo not shown) [Compound 324]
EC50 [2, 4]: < 1 µM
IC50 (recombinant RSV complex): < 1 µM
EC50 (RSV replicon; [3]): < 1 µM

COc1cc(C(=O)NCC(O)(c2cc(C(C)(C)NC(=O)CN)cc(-c3ccc(F)c(Cl)c3)n2)C(F)(F)F)ccc1OC1CC1 (stereo not shown) [Compound 497]
EC50 [2, 4]: < 1 µM
IC50 (recombinant RSV complex): < 1 µM
EC50 (RSV replicon; [3]): < 1 µM

COc1cc(C(=O)NCC(O)(c2cc(C(C)(C)N)cc(-c3ccc(F)c(Cl)c3)n2)C(F)(F)F)ccc1OCC(=O)O (stereo not shown) [Compound 578]
CC50 at 5 days [1]: 10 to 100 µM
IC50 (recombinant RSV complex): < 1 µM
EC50 (RSV replicon; [3]): < 1 µM

COc1cc(C(=O)NCC(O)(c2cc(C(C)(C)N)cc(-c3ccc(F)c(C(F)(F)F)c3)n2)C(F)(F)F)ccc1OC1CC1 (stereo not shown) [Compound 521]
EC50 [2, 4]: < 1 µM
IC50 (recombinant RSV complex): < 1 µM
EC50 (RSV replicon; [3]): < 1 µM

COc1cc(C(=O)NCC(O)(c2cc(C(C)(C)N)cc(-c3ccc(F)c(Cl)c3)n2)C(F)(F)F)ccc1OC1CC1 (single isomer, unassigned) [Compound 272]
EC50 [2, 4]: < 1 µM
IC50 (recombinant RSV complex): < 1 µM
EC50 (RSV replicon; [3]): < 1 µM

COc1cc(C(=O)NCC(O)(c2cc(C(C)(C)O)cc(-c3ccc(F)c(Cl)c3)n2)C(F)(F)F)ccc1OC1CC1 (stereo not shown) [Compound 386]
CC50 at 5 days [1]: 10 to 100 µM
IC50 (recombinant RSV complex): < 1 µM
EC50 (RSV replicon; [3]): < 1 µM

COc1cc(C(=O)NCC(O)(Cn2cccn2)c2ccc(OC)c(-c3ccc(F)c(Cl)c3)n2)ccc1OCCO (stereo not shown) [Compound 184]
EC50 ([2]; read-out: 50% effective concentration (EC50), HEp-2 cells infected with RSV long strain, 5 days, CCK-8 readout): < 1 µM
IC50 (recombinant RSV complex; read-out: IC50 (compound concentration at which the enzyme-catalyzed rate was reduced by 50%), 10 nM recombinant RSV complex, 2 h at 30° C., Tables E, F and G list compounds by IC50 band): < 1 µM
EC50 (RSV replicon; RSV replicon, 395 HeLa or APC126 cells, value given by membership in Table H / Table I): < 1 µM

COc1cc(C(=O)NCC2(c3cccc(-c4csc5c(F)cccc45)n3)COC2)ccc1OCCO [Compound 163]
CC50 at 5 days [1]: 10 to 100 µM
EC50 (RSV replicon; [3]): 1 to 50 µM

COc1cc(C(=O)NCC(O)(c2cc(C(C)(C)N)cc(-c3ccc(F)c(Cl)c3)n2)C2CC2)ccc1OC1CC1 (stereo not shown) [Compound 667]
EC50 [2, 4]: < 1 µM
IC50 (recombinant RSV complex): < 1 µM
EC50 (RSV replicon; [3]): < 1 µM

COc1cc(C(=O)NCC(O)(c2cc3c(c(-c4ccc(CO)cc4)n2)OCC3(C)N)C(F)(F)F)ccc1OCCO (stereo not shown) [Compound 672]
CC50 at 5 days [1]: > 100 µM
IC50 (recombinant RSV complex): < 10 µM
EC50 (RSV replicon; [3]): < 1 µM

COc1cc(C(=O)NCC(O)(c2cc3c(c(-c4ccc(F)c(Cl)c4)n2)OCC3(C)NCCN)C(F)(F)F)ccc1OC1CC1 (stereo not shown) [Compound 499]
EC50 [2, 4]: < 1 µM
IC50 (recombinant RSV complex): < 1 µM
EC50 (RSV replicon; [3]): < 1 µM

CC(C)(N)c1cc(-c2ccc(F)c(Cl)c2)nc(C(O)(CNC(=O)c2ccc3c(c2)OCCO3)C(F)(F)F)c1 (stereo not shown) [Compound 273]
EC50 [2, 4]: < 1 µM
IC50 (recombinant RSV complex): < 1 µM
EC50 (RSV replicon; [3]): < 1 µM

COc1cc(C(=O)NC[C@](O)(c2cc3c(c(-c4ccc(C#N)cc4)n2)OC[C@]3(C)N)C(F)(F)F)ccc1OCCO [Compound 604d]
EC50 [2, 4]: < 1 µM
IC50 (recombinant RSV complex): < 1 µM
EC50 (RSV replicon; [3]): < 1 µM

CNC(C)(C)c1cc(-c2ccc(F)c(Cl)c2)nc(C(O)(CNC(=O)c2ccc(OC3CC3)c(OC)c2)C(F)(F)F)c1 (stereo not shown) [Compound 394]
EC50 [2, 4]: < 1 µM
IC50 (recombinant RSV complex): < 1 µM
EC50 (RSV replicon; [3]): < 1 µM

COc1cc(C(=O)NCC(O)(c2cc(C(C)(C)N)cc(-c3ccc(F)c(Cl)c3)n2)C(F)(F)F)ccc1OCC(F)(F)F (stereo not shown) [Compound 325]
EC50 [2, 4]: < 1 µM
IC50 (recombinant RSV complex): < 1 µM
EC50 (RSV replicon; [3]): < 1 µM

CC(C)(N)c1cc(-c2ccc(F)c(Cl)c2)nc(C(O)(CNC(=O)c2ccc3c(c2)OC(F)(F)O3)C(F)(F)F)c1 (stereo not shown) [Compound 275]
EC50 [2, 4]: 1 to 50 µM
IC50 (recombinant RSV complex): < 1 µM
EC50 (RSV replicon; [3]): < 1 µM

COCCNC(C)(C)c1cc(-c2ccc(F)c(Cl)c2)nc(C(O)(CNC(=O)c2ccc(OC3CC3)c(OC)c2)C(F)(F)F)c1 (stereo not shown) [Compound 505]
EC50 [2, 4]: < 1 µM
IC50 (recombinant RSV complex): < 1 µM
EC50 (RSV replicon; [3]): < 1 µM
